According to ChEMBL document CHEMBL3885861, “Open TG-GATES”:

Species on record: Rattus norvegicus
Experiment: Open TG-GATES - Regimen: Single
Type: toxicity, organism-based, Sprague-Dawley
Parameters: regimen Single, gender Male, age 6 weeks
Settings: in vivo, po, 300 mg/kg, route gavage, dose level Middle; for APTT / Bas / Eos / Fbg / Hb / Ht / Lym / MCH / MCHC / MCV / Mono / Neu / PT / Plat / RBC / Ret / WBC: tissue Blood; for KIDNEY_L / KIDNEY_R / KIDNEY_TOTAL: tissue Kidney; for LIVER: tissue Liver; for A/G / ALP / ALT / AST / BUN / CRE / Ca / Cl / DBIL / GLC / IP / K / LDH / Na / PL / RALB / TBIL / TC / TG / TP / gamma-GTP: tissue Plasma

`CC(S)C(=O)NCC(=O)O` (configuration not stated) [TIOPRONIN] was tested, and the TERMINAL_BW (3 h) was 211.9 g, the APTT (3 h) was 22.7 s and the Bas (3 h) was 0%. For the same compound, the Eos (3 h) was 0.4%, the Fbg (3 h) was 295.4 mg/dL and the Hb (3 h) was 12.8 g/dL. For the same compound, the Ht (3 h) was 39.7%, the Lym (3 h) was 77.8% and the MCH (3 h) was 20.3 pg. The MCHC (3 h) was 32.2%, the MCV (3 h) was 63 fL and the Mono (3 h) was 2.6%. For the same compound, the Neu (3 h) was 18.4%, the PT (3 h) was 16.8 s and the Plat (3 h) was 116 x10_4/uL. For the same compound, the RBC (3 h) was 631.6 x10_4/ul, the Ret (3 h) was 7.7% and the WBC (3 h) was 76.7 x10_2/uL. For the same compound, the KIDNEY_L (3 h) was 0.9 g, the KIDNEY_R (3 h) was 1 g and the KIDNEY_TOTAL (3 h) was 1.9 g. For the same compound, the LIVER (3 h) was 9.7 g, the A/G (3 h) was 1.2 and the ALP (3 h) was 1446.8 IU/L. For the same compound, the ALT (3 h) was 65.2 IU/L, the AST (3 h) was 83.6 IU/L and the BUN (3 h) was 10.8 mg/dL. The CRE (3 h) was 0.1 mg/dL, the Ca (3 h) was 10.7 mg/dL and the Cl (3 h) was 106.2 meq/L. The DBIL (3 h) was 0.002 mg/dL, the GLC (3 h) was 194.8 mg/dL and the IP (3 h) was 7.9 mg/dL. It also gave a K (3 h) of 3.9 meq/L, an LDH (3 h) of 169.4 IU/L and a Na (3 h) of 142.2 meq/L. It also gave a PL (3 h) of 125.2 mg/dL, an RALB (3 h) of 3 g/dL and a TBIL (3 h) of 0.02 mg/dL. For the same compound, the TC (3 h) was 73.6 mg/dL, the TG (3 h) was 47 mg/dL and the TP (3 h) was 5.4 g/dL. The gamma-GTP (3 h) was 2 IU/L, the TERMINAL_BW (6 h) was 212 g and the APTT (6 h) was 21.2 s. For the same compound, the Bas (6 h) was 0%, the Eos (6 h) was 0.8% and the Fbg (6 h) was 290.4 mg/dL. The Hb (6 h) was 12.6 g/dL, the Ht (6 h) was 38.8% and the Lym (6 h) was 80.4%. It also gave an MCH (6 h) of 20.2 pg, an MCHC (6 h) of 32.5% and an MCV (6 h) of 62.2 fL. For the same compound, the Mono (6 h) was 2.6%, the Neu (6 h) was 15.4% and the PT (6 h) was 16.9 s. The Plat (6 h) was 121.4 x10_4/uL, the RBC (6 h) was 625 x10_4/ul and the Ret (6 h) was 8%. The WBC (6 h) was 77.2 x10_2/uL, the KIDNEY_L (6 h) was 0.9 g and the KIDNEY_R (6 h) was 1 g. The KIDNEY_TOTAL (6 h) was 1.9 g, the LIVER (6 h) was 9.2 g and the A/G (6 h) was 1.2. It also gave an ALP (6 h) of 1527 IU/L, an ALT (6 h) of 58 IU/L and an AST (6 h) of 73 IU/L. The BUN (6 h) was 8.4 mg/dL, the CRE (6 h) was 0.1 mg/dL and the Ca (6 h) was 10.8 mg/dL. For the same compound, the Cl (6 h) was 107.4 meq/L, the DBIL (6 h) was 0 mg/dL and the GLC (6 h) was 191.6 mg/dL. The IP (6 h) was 9.6 mg/dL, the K (6 h) was 4.4 meq/L and the LDH (6 h) was 154.2 IU/L. It also gave a Na (6 h) of 142.2 meq/L, a PL (6 h) of 117.2 mg/dL and an RALB (6 h) of 2.9 g/dL. The TBIL (6 h) was 0.022 mg/dL, the TC (6 h) was 67.2 mg/dL and the TG (6 h) was 59.4 mg/dL. The TP (6 h) was 5.3 g/dL, the gamma-GTP (6 h) was 1.8 IU/L and the TERMINAL_BW (9 h) was 208.1 g. The APTT (9 h) was 23.7 s, the Bas (9 h) was 0% and the Eos (9 h) was 0.4%. The Fbg (9 h) was 293.4 mg/dL, the Hb (9 h) was 12.9 g/dL and the Ht (9 h) was 40.3%. It also gave a Lym (9 h) of 77.8%, an MCH (9 h) of 20.7 pg and an MCHC (9 h) of 32.1%. It also gave an MCV (9 h) of 64.6 fL, a Mono (9 h) of 2.4% and a Neu (9 h) of 18.6%. For the same compound, the PT (9 h) was 16.3 s, the Plat (9 h) was 118 x10_4/uL and the RBC (9 h) was 624 x10_4/ul. It also gave a Ret (9 h) of 7.7%, a WBC (9 h) of 77 x10_2/uL and a KIDNEY_L (9 h) of 0.9 g. The KIDNEY_R (9 h) was 1 g, the KIDNEY_TOTAL (9 h) was 1.9 g and the LIVER (9 h) was 8.1 g. It also gave an A/G (9 h) of 1.2, an ALP (9 h) of 1363.8 IU/L and an ALT (9 h) of 52.8 IU/L. It also gave an AST (9 h) of 75 IU/L, a BUN (9 h) of 10.6 mg/dL and a CRE (9 h) of 0.1 mg/dL. It also gave a Ca (9 h) of 10.6 mg/dL, a Cl (9 h) of 107.4 meq/L and a DBIL (9 h) of 0.008 mg/dL. It also gave a GLC (9 h) of 191.4 mg/dL, an IP (9 h) of 9.8 mg/dL and a K (9 h) of 4.2 meq/L. The LDH (9 h) was 194.2 IU/L, the Na (9 h) was 143.2 meq/L and the PL (9 h) was 110.6 mg/dL. For the same compound, the RALB (9 h) was 2.8 g/dL, the TBIL (9 h) was 0.02 mg/dL and the TC (9 h) was 63.4 mg/dL. It also gave a TG (9 h) of 42.2 mg/dL, a TP (9 h) of 5.3 g/dL and a gamma-GTP (9 h) of 1.2 IU/L. The TERMINAL_BW (24 h) was 227.3 g, the APTT (24 h) was 21.1 s and the Bas (24 h) was 0%. It also gave an Eos (24 h) of 0.8%, a Fbg (24 h) of 312.6 mg/dL and a Hb (24 h) of 12.7 g/dL. The Ht (24 h) was 38.9%, the Lym (24 h) was 80% and the MCH (24 h) was 20.4 pg. For the same compound, the MCHC (24 h) was 32.7%, the MCV (24 h) was 62.2 fL and the Mono (24 h) was 3%. It also gave a Neu (24 h) of 15%, a PT (24 h) of 16.1 s and a Plat (24 h) of 113.7 x10_4/uL. The RBC (24 h) was 624.6 x10_4/ul, the Ret (24 h) was 7.4% and the WBC (24 h) was 100.8 x10_2/uL. It also gave a KIDNEY_L (24 h) of 1 g, a KIDNEY_R (24 h) of 1 g and a KIDNEY_TOTAL (24 h) of 1.9 g. The LIVER (24 h) was 10.4 g, the A/G (24 h) was 1.2 and the ALP (24 h) was 1662.2 IU/L. For the same compound, the ALT (24 h) was 41.8 IU/L, the AST (24 h) was 72.4 IU/L and the BUN (24 h) was 14.6 mg/dL. It also gave a CRE (24 h) of 0.2 mg/dL, a Ca (24 h) of 10.8 mg/dL and a Cl (24 h) of 106.4 meq/L. It also gave a DBIL (24 h) of 0 mg/dL, a GLC (24 h) of 193.6 mg/dL and an IP (24 h) of 7.6 mg/dL. For the same compound, the K (24 h) was 4.4 meq/L, the LDH (24 h) was 161.6 IU/L and the Na (24 h) was 142.6 meq/L. For the same compound, the PL (24 h) was 143.2 mg/dL, the RALB (24 h) was 3 g/dL and the TBIL (24 h) was 0.018 mg/dL. The TC (24 h) was 81.6 mg/dL, the TG (24 h) was 102.4 mg/dL and the TP (24 h) was 5.6 g/dL. The gamma-GTP (24 h) was 1.2 IU/L.
